From US20260138990A1, “TRICYCLIC FUSED IMIDAZOLE COMPOUNDS AS CD38 MODULATORS AND USES THEREOF” (AEOVIAN PHARMACEUTICALS, INC., priority 2023, published 2026)

Key:
human CD38 = biological target: T1, human CD38 (Homo sapiens, UniProt P28907); assay: NAD+ cyclase activity assay with human recombinant CD38 protein (ε-NAD fluorescence); assay type: biochemical; details: 1.9 nM human CD38, substrate ε-NAD, 30 min preincubation, fluorescence 300/410 nm
T1 construct: purchased Bio-Techne GmbH AVI2404
T1 sequence (P28907 1-300): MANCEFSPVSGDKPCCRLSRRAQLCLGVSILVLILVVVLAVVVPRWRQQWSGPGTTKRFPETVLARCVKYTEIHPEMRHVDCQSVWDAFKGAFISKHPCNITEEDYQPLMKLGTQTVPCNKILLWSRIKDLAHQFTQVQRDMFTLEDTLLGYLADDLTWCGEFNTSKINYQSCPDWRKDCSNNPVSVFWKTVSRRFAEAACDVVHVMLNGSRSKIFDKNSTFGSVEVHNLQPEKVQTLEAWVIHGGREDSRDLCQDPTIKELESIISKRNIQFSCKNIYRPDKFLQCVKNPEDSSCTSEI
Method: (§1) Example 4: NAD^+ Cydase Activity Assay with Human or Mouse Recombinant CD38 Protein
(§2) The following assay was used to determine the ability of compounds of the invention to inhibit the hydrolysis of NAD^+ by the human or mouse enzyme, CD38.
(§3) Reaction buffer: 40 mM HEPES/NaOH pH 7.5, 250 mM sucrose, 0.01% Tween
(§4) Final concentrations: 0.6 nM mouse CD38 (4947-AC, Bio-Techne GmbH) 1.9 nM human CD38 (AVI2404, Bio-Techne GmbH)
(§5) Substrate: […] Nicotinamide 1,N6-ethenoadenine dinucleotide (&-NAD)
(§6) Read-out: Fluorescence intensity (extinction 300 nm/emission 410 nm)
(§7) Required reaction buffer, required CD38 concentration in reaction buffer and required e-NAD concentration in reaction buffer were prepared. Thereafter, 8 μL of CD38 in reaction buffer was added to High Control and compound concentration wells in 384 well plate (Corning #4514, 384 well, nonbinding surface, low volume, round bottom) and 8 μL of reaction buffer to Low Control. Compound dilutions were transferred via pintool technology that transfers 42.5 nL compound dilutions (12-point dose-response with factor three dilutions in 100% DMSO) well-to-well. Plate was subsequently shaken for 15 s at 1450 rpm and sealed for incubation for 30 min at room temperature. Thereafter, 2 μL of e-NAD in reaction buffer were added with Integra Voyager. After shaking for 15 s at 1450 rpm, plate was sealed, and assay signal were measured continuously with PHERAstar® fluorescence intensity module (extinction 300 nm/emission 410 nm).
(§8) Dose-response curves were constructed using twelve-pointfactor three dilutions in triplicates per plate. High control (full enzyme activity) was set to assay signal of CD38 and e-NAD in presence of vehicle (DMSO) and Low control (full enzyme inhibition) was set to assay signal of e-NAD and vehicle (DMSO) in absence of CD38. For data analysis, fluorescent signal of traces corresponding to each compound concentration and High and Low control were monitored over time. Each run, High Control (full enzyme activity) was fitted to Linear equation via GraphPad Prism to determine CD38 activity from the slope and determine the time interval of linear phase of reaction to account for minor fluctuations. Thereafter, slopes of all compound concentrations were determined via fitting to same linear equation (GraphPad Prism) over the same time interval as determined for High control. […] Unless otherwise stated, fitting of curves were fixed to 100%-inhibition and unlocked for 0%-inhibition.

mouse CD38 = biological target: T2, mouse CD38 (Mus musculus, UniProt P56528); assay: NAD+ cyclase activity assay with mouse recombinant CD38 protein (ε-NAD fluorescence); assay type: biochemical; details: 0.6 nM mouse CD38, substrate ε-NAD, 30 min preincubation, fluorescence 300/410 nm
T2 construct: purchased Bio-Techne GmbH 4947-AC
T2 sequence (P56528 1-304): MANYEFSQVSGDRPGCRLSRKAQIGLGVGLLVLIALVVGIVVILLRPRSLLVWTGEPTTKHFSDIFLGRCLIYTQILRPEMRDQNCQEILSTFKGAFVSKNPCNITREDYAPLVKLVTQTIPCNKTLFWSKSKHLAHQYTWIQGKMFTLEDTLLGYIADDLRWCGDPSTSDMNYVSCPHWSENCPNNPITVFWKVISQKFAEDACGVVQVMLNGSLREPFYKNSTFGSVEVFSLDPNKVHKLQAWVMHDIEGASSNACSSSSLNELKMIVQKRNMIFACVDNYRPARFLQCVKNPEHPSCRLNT
Method: as §1, §2, §3, §4, §5, §6, §7, §8

IC50 (human CD38) | IC50 (mouse CD38) | SMILES
< 30 nM | < 1 nM | C[C@H]1CCCC[C@@H]1NC(=O)c1cc(F)c2c(c1)-c1cncn1CCO2 (relative stereo) [Compound 174A, 8-Fluoro-N-(trans-2-methylcyclohexyl)-5,6-dihydrobenzo[f]imidazo[1,5-d][1,4]oxazepine-10-carboxamide]
< 30 nM | 1 to 10 nM | C[C@@H]1CCCC[C@@H]1NC(=O)c1cc(F)c2c(c1)-c1cncn1CCO2 (relative stereo) [Compound 175A, 8-Fluoro-N-(cis-2-methylcyclohexyl)-5,6-dihydrobenzo[f]imidazo[1,5-d][1,4]oxazepine-10-carboxamide]
< 30 nM | 1 to 10 nM | C[C@@H]1CCC[C@@H](C)C1NC(=O)c1cc(F)c2c(c1)-c1cncn1CCO2 (relative stereo) [Compound 177A, N-(trans-2-cis-6-Dimethylcyclohexyl)-8-fluoro-5,6-dihydrobenzo[f]imidazo[1,5-d][1,4]oxazepine-10-carboxamide]
100 to 1000 nM | – | C[C@@H]1C[C@H](CC(F)(F)F)CC[C@@H]1NC(=O)c1cc(Cl)c2c(c1)-c1cncn1CCO2 (relative stereo) [Compound 184A, 8-Chloro-N-(cis-2-methyl-cis-4-(2,2,2-trifluoroethyl)cyclohexyl)-5,6-dihydrobenzo[f]imidazo[1,5-d][1,4]oxazepine-10-carboxamide]
30 to 100 nM | – | C[C@@H]1C[C@H](CC(F)(F)F)CC[C@@H]1NC(=O)c1cc(F)c2c(c1)-c1cncn1CCO2 (relative stereo) [Compound 186A, 8-Fluoro-N-(cis-2-methyl-cis-4-(2,2,2-trifluoroethyl)cyclohexyl)-5,6-dihydrobenzo[f]imidazo[1,5-d][1,4]oxazepine-10-carboxamide]
< 30 nM | < 1 nM | O=C(N[C@@H]1CCCOC1)c1ccc2c(c1)-c1cncn1CCO2 [Compound 1A, (R)—N-(Tetrahydro-2H-pyran-3-yl)-5,6-dihydrobenzo[f]imidazo[1,5-d][1,4]oxazepine-10-carboxamide]
< 30 nM | 1 to 10 nM | O=C(N[C@@H]1CCS(=O)(=O)C1)c1ccc2c(c1)-c1cncn1CCO2 [Compound 2A, (R)—N-(1,1-Dioxidotetrahydrothiophen-3-yl)-5,6-dihydrobenzo[f]imidazo[1,5-d][1,4]oxazepine-10-carboxamide]
< 30 nM | 1 to 10 nM | COCCO[C@H]1CC[C@H](NC(=O)c2ccc3c(c2)-c2cncn2CCO3)CC1 [Compound 3A, N-((1r,4r)-4-(2-Methoxyethoxy)cyclohexyl)-5,6-dihydrobenzo[f]imidazo[1,5-d][1,4]oxazepine-10-carboxamide]
< 30 nM | 1 to 10 nM | CS(=O)(=O)N1CCC(NC(=O)c2ccc3c(c2)-c2cncn2CCO3)CC1 [Compound 4A, N-(1-(Methylsulfonyl)piperidin-4-yl)-5,6-dihydrobenzo[f]imidazo[1,5-d][1,4]oxazepine-10-carboxamide]
< 30 nM | < 1 nM | O=C(NC1CCC(F)(F)CC1)c1ccc2c(c1)-c1cncn1CCO2 [Compound 5A, N-(4,4-Difluorocyclohexyl)-5,6-dihydrobenzo[f]imidazo[1,5-d][1,4]oxazepine-10-carboxamide]
– | 10 to 100 nM | O=C(N[C@@H]1CCCOC1)c1ccc2c(n1)-n1cncc1CCO2 [Compound 42A, (R)—N-(tetrahydro-2H-pyran-3-yl)-6,7-dihydroimidazo[1,5-d]pyrido[3,2-b][1,4]oxazepine-2-carboxamide]
> 1000 nM | – | O=C(N[C@@H]1CCCOC1)c1ccc2c(n1)-n1cnc(c1)CCO2 [Compound 43A, (Z)—N—((R)-Tetrahydro-2H-pyran-3-yl)-5,6-dihydro-1,4-(metheno)pyrido[3,2-b][1,4,6]oxadiazonine-10-carboxamide]
< 30 nM | – | COc1nc2cc(NC(=O)c3ccc4c(c3)-c3cncn3CCO4)ccc2s1 [Compound 44A, N-(2-Methoxybenzo[d]thiazol-5-yl)-5,6-dihydrobenzo[f]imidazo[1,5-d][1,4]oxazepine-10-carboxamide]
< 30 nM | – | COCCOc1nc2cc(NC(=O)c3ccc4c(c3)-c3cncn3CCO4)ccc2s1 [Compound 45A, N-(2-(2-Methoxyethoxy)benzo[d]thiazol-5-yl)-5,6-dihydrobenzo[f]imidazo[1,5-d][1,4]oxazepine-10-carboxamide]
100 to 1000 nM | – | COCCO[C@H]1CC[C@H](NC(=O)c2cc3c(c(C)c2C)OCCn2cncc2-3)CC1 [Compound 179A, N-((1r,4r)-4-(2-Methoxyethoxy)cyclohexyl)-8,9-dimethyl-5,6-dihydrobenzo[f]imidazo[1,5-d][1,4]oxazepine-10-carboxamide]
100 to 1000 nM | – | Cc1c(C(=O)NC2CCC(F)(F)CC2)cc2c(c1C)OCCn1cncc1-2 [Compound 180A, N-(4,4-Difluorocyclohexyl)-8,9-dimethyl-5,6-dihydrobenzo[f]imidazo[1,5-d][1,4]oxazepine-10-carboxamide]
< 30 nM | – | O=C(NC1CCCC(C(F)(F)F)C1)c1cc(Cl)c2c(c1)-c1cncn1CCO2 (centres unmarked) [Compound 181A, 8-Chloro-N-(3-(trifluoromethyl)cyclohexyl)-5,6-dihydrobenzo[f]imidazo[1,5-d][1,4]oxazepine-10-carboxamide]
30 to 100 nM | – | Cc1cc(CC(F)(F)F)ccc1NC(=O)c1cc(Cl)c2c(c1)-c1cncn1CCO2 [Compound 182A, 8-Chloro-N-(2-methyl-4-(2,2,2-trifluoroethyl)phenyl)-5,6-dihydrobenzo[f]imidazo[1,5-d][1,4]oxazepine-10-carboxamide]
< 30 nM | – | CC1CC(CC(F)(F)F)CCC1NC(=O)c1cc(Cl)c2c(c1)-c1cncn1CCO2 (centres unmarked) [Compound 183A, 8-Chloro-N-(2-methyl-4-(2,2,2-trifluoroethyl)cyclohexyl)-5,6-dihydrobenzo[f]imidazo[1,5-d][1,4]oxazepine-10-carboxamide]
< 30 nM | – | CC1CC(CC(F)(F)F)CCC1NC(=O)c1cc(F)c2c(c1)-c1cncn1CCO2 (centres unmarked) [Compound 185A, 8-Fluoro-N-(2-methyl-4-(2,2,2-trifluoroethyl)cyclohexyl)-5,6-dihydrobenzo[f]imidazo[1,5-d][1,4]oxazepine-10-carboxamide]
< 30 nM | – | O=C(N[C@H]1CC[C@H](OCC(F)(F)F)CC1)c1cc2c(c(F)c1F)OCCn1cncc1-2 [Compound 187A, 8,9-Difluoro-N-((1r,4r)-4-(2,2,2-trifluoroethoxy)cyclohexyl)-5,6-dihydrobenzo[f]imidazo[1,5-d][1,4]oxazepine-10-carboxamide]
100 to 1000 nM | – | O=C(N[C@H]1CC[C@@H](OCC(F)(F)F)CC1)c1cc2c(c(F)c1F)OCCn1cncc1-2 [Compound 188A, 8,9-Difluoro-N-((1s,4s)-4-(2,2,2-trifluoroethoxy)cyclohexyl)-5,6-dihydrobenzo[f]imidazo[1,5-d][1,4]oxazepine-10-carboxamide]
100 to 1000 nM | – | Cc1c(C(=O)NC2CCC(OCC(F)(F)F)CC2)cc2c(c1C)OCCn1cncc1-2 (centres unmarked) [Compound 189A, 8,9-Dimethyl-N-(4-(2,2,2-trifluoroethoxy)cyclohexyl)-5,6-dihydrobenzo[f]imidazo[1,5-d][1,4]oxazepine-10-carboxamide]
30 to 100 nM | – | COCCO[C@H]1CC[C@H](NC(=O)c2cc3c(c(Cl)c2C)OCCn2cncc2-3)CC1 [Compound 191A, 8-Chloro-N-((1r,4r)-4-(2-methoxyethoxy)cyclohexyl)-9-methyl-5,6-dihydrobenzo[f]imidazo[1,5-d][1,4]oxazepine-10-carboxamide]
